Assay results taken from the NIST ThermoML archive (doi:10.1021/je400659p).

Key:
[1] = refractive index (Na D-line) (dimensionless); xn = mol fraction of the nth substance listed; details: 101 kPa, Liquid, Standard Abbe refractometry
[2] = xn = mol fraction of the nth substance listed; details: 101 kPa, Liquid, Vibrating tube method

CCn1cc[n+](C)c1.F[B-](F)(F)F [1-ethyl-3-methylimidazolium tetrafluoroborate] + OCCO
Details | mass density, [2] [kg/m3] | refractive index, [1]
293.15 K, x1 = 0.1249 | 1161.63 | –
293.15 K, x1 = 0.2084 | 1184.1 | –
293.15 K, x1 = 0.3046 | 1205.75 | –
293.15 K, x1 = 0.4124 | 1224.93 | –
293.15 K, x1 = 0.4763 | 1234.72 | –
293.15 K, x1 = 0.5565 | 1245.69 | –
293.15 K, x1 = 0.717 | 1264.34 | –
293.15 K, x1 = 0.7826 | 1271.14 | –
293.15 K, x1 = 0.901 | 1282.2 | –
293.15 K, x1 = 1 | 1290.63 | –
298.15 K, x1 = 0.1249 | 1157.85 | 1.4239
298.15 K, x1 = 0.2084 | 1180.23 | 1.4206
298.15 K, x1 = 0.3046 | 1201.79 | 1.4176
298.15 K, x1 = 0.4124 | 1220.94 | 1.4151
298.15 K, x1 = 0.4763 | 1230.74 | 1.414
298.15 K, x1 = 0.5565 | 1241.72 | 1.413
298.15 K, x1 = 0.717 | 1260.43 | 1.412
298.15 K, x1 = 0.7826 | 1267.25 | 1.4118
298.15 K, x1 = 0.901 | 1278.35 | 1.4115
298.15 K, x1 = 1 | 1286.82 | 1.4111
303.15 K, x1 = 0.1249 | 1154.08 | 1.4224
303.15 K, x1 = 0.2084 | 1176.36 | 1.4192
303.15 K, x1 = 0.3046 | 1197.84 | 1.4163
303.15 K, x1 = 0.4124 | 1216.96 | 1.4138
303.15 K, x1 = 0.4763 | 1226.77 | 1.4127
303.15 K, x1 = 0.5565 | 1237.77 | 1.4117
303.15 K, x1 = 0.717 | 1256.53 | 1.4105
303.15 K, x1 = 0.7826 | 1263.37 | 1.4103
303.15 K, x1 = 0.901 | 1274.51 | 1.4101
303.15 K, x1 = 1 | 1283.02 | 1.41
313.15 K, x1 = 0.1249 | 1146.54 | 1.4199
313.15 K, x1 = 0.2084 | 1168.63 | 1.4167
313.15 K, x1 = 0.3046 | 1189.98 | 1.4136
313.15 K, x1 = 0.4124 | 1209.07 | 1.411
313.15 K, x1 = 0.4763 | 1218.9 | 1.4099
313.15 K, x1 = 0.5565 | 1229.92 | 1.4089
313.15 K, x1 = 0.717 | 1248.81 | 1.4079
313.15 K, x1 = 0.7826 | 1255.69 | 1.4077
313.15 K, x1 = 0.901 | 1266.9 | 1.4076
313.15 K, x1 = 1 | 1275.45 | 1.4073
323.15 K, x1 = 0.1249 | 1138.98 | 1.4174
323.15 K, x1 = 0.2084 | 1160.91 | 1.4142
323.15 K, x1 = 0.3046 | 1182.17 | 1.4111
323.15 K, x1 = 0.4124 | 1201.24 | 1.4085
323.15 K, x1 = 0.4763 | 1211.09 | 1.4074
323.15 K, x1 = 0.5565 | 1222.17 | 1.4064
323.15 K, x1 = 0.717 | 1241.18 | 1.4054
323.15 K, x1 = 0.7826 | 1248.09 | 1.4054
323.15 K, x1 = 0.901 | 1259.36 | 1.4053
323.15 K, x1 = 1 | 1267.97 | 1.4051
333.15 K, x1 = 0.1249 | 1131.39 | –
333.15 K, x1 = 0.2084 | 1153.19 | –
333.15 K, x1 = 0.3046 | 1174.39 | –
333.15 K, x1 = 0.4124 | 1193.47 | –
333.15 K, x1 = 0.4763 | 1203.36 | –
333.15 K, x1 = 0.5565 | 1214.49 | –
333.15 K, x1 = 0.717 | 1233.6 | –
333.15 K, x1 = 0.7826 | 1240.56 | –
333.15 K, x1 = 0.901 | 1251.89 | –
333.15 K, x1 = 1 | 1260.55 | –
343.15 K, x1 = 0.1249 | 1123.78 | –
343.15 K, x1 = 0.2084 | 1145.48 | –
343.15 K, x1 = 0.3046 | 1166.65 | –
343.15 K, x1 = 0.4124 | 1185.76 | –
343.15 K, x1 = 0.4763 | 1195.68 | –
343.15 K, x1 = 0.5565 | 1206.88 | –
343.15 K, x1 = 0.717 | 1226.11 | –
343.15 K, x1 = 0.7826 | 1233.11 | –
343.15 K, x1 = 0.901 | 1244.49 | –
343.15 K, x1 = 1 | 1253.18 | –
353.15 K, x1 = 0.1249 | 1116.15 | –
353.15 K, x1 = 0.2084 | 1137.77 | –
353.15 K, x1 = 0.3046 | 1158.94 | –
353.15 K, x1 = 0.4124 | 1178.1 | –
353.15 K, x1 = 0.4763 | 1188.07 | –
353.15 K, x1 = 0.5565 | 1199.33 | –
353.15 K, x1 = 0.717 | 1218.68 | –
353.15 K, x1 = 0.7826 | 1225.73 | –
353.15 K, x1 = 0.901 | 1237.16 | –
353.15 K, x1 = 1 | 1245.87 | –
